Data: patent US20070105825A1, “Concurrent drugs” (priority 2004, published 2007)

What was measured:
whole blood = experiment: Improvement effect on activated state of blood coagulation (activated whole blood clotting time, Hemochron); assay type: cell-based, rabbit (Japanese White, male); details: rabbit whole blood; for significant prolonged effect on the activated whole blood clotting time to the control: independent use, 1 μM; for activated clotting time (mean ± S.E.): single application, antiplatelet drug 1 μM, control 218 ± 5.1
Description: Citrate blood collected from a rabbit (Japanese White, male) was used for the test as the whole blood after maintaining room temperature for 30-60 minutes. 376 μL of the whole blood, 4 μL of a dimethylsulfoxide and 20 μL of a 250 mM calcium chloride solution were poured into a test tube for measurement of activated whole blood clotting time (Hemochron test tube P214, International Technidyne Corporation). After slight stirring of the mixture, an activated whole blood clotting time was measured by a blood clotting meter (Hemochron 801, International Technidyne Corporation) as the control.

[1] = test system: thrombus formation in abdominal aorta of rats; experiment: Inhibitory effect on thrombus formation (FeCl2-induced abdominal aorta thrombus, total protein content); assay type: in vivo, rat (Sprague-Dawley, male); details: rat; for significant inhibitory effects on the thrombus formation compared with group A as control: alone: cilostazol 100 mg/kg oral or compound Id 3 mg/kg subcutaneous; for Total protein amount in thrombus: single application, control 1.52 ± 0.39
Description: Rats (Sprague-Dawley rats, male) were divided into four groups of A, B, C and D. 0.5% methylcellulose solution was orally administrated into the rats of groups A and B, and cilostazol (100 mg/kg) was orally administrated into the rats of groups C and D. […] Simultaneously, the all rats of groups A-D were anesthetized by intraperitoneal injection of 5 mL/kg of 20% urethane solution. […] After removing of the filter paper, each rat was left at rest for additional 25 minutes. Then, the abdominal aorta was ligated at both upper and lower ends of the thrombus induction site. All the thrombus adhering to the inside of the excised abdominal aorta were harvested and dissolved in 1 mL of 0.5 N sodium hydroxide solution as the test solution. The total protein content in the test solution was measured using Coomasie Plus Protein Assay Kit (PIERCE Corp.) as the index of the thrombus formation.

| SMILES | significant prolonged effect on the activated whole blood clotting time to the control (whole blood) | activated clotting time (mean ± S.E.) (whole blood) | significant inhibitory effects on the thrombus formation compared with group A as control [1] | Total protein amount in thrombus ([1]; cilostazol 100 mg/kg oral, n=3) | Total protein amount in thrombus ([1]; compound Id 3 mg/kg subcutaneous, n=4) |
| --- | --- | --- | --- | --- | --- |
| CC(=O)Oc1ccccc1C(=O)O [Aspirin, aspirin] | showed a significant prolonged effect | 215 ± 16.3 s | – | – | – |
| O=C1CCc2cc(OCCCCc3nnnn3C3CCCCC3)ccc2N1 [Cilostazol, cilostazol] | showed a significant prolonged effect | 205 ± 5.8 s | not observed | 1.39 ± 0.45 mg | – |
| CS(=O)(=O)c1ccccc1-c1ccc(CCNS(=O)(=O)c2cc(C(=N)N)ccc2O)c(OCC(=O)O)c1 [Compound Id] | – | – | not observed | – | 0.94 ± 0.30 mg |
| OCCN(CCO)c1nc(N2CCCCC2)c2nc(N(CCO)CCO)nc(N3CCCCC3)c2n1 [Dipyridamole, dipyridamole] | showed a significant prolonged effect | 210 ± 10.9 s | – | – | – |
